System: lipoxin A4
Assay: Synthesis/release of lipoxin A4 by stimulated (PMA/A23187 + DHA/EPA) mononuclear blood cells, LC-MS quantification, % modulation relative to the control
Assay type: cell-based
Settings: % modulation vs stimulated control
Method: Mononuclear blood cells are cultured under 5% CO2 and at 37° C. in a serum-free medium for macrophages (SFM Macrophage; Invitrogen 12065074) for 24 hours.
After this step, the medium is replaced with the same fresh test medium also containing the active agents at the various doses for 30 minutes in the presence of the various products to be evaluated, as indicated in the table of results below. The inflammatory response was then triggered in the presence of phorbol myristate (0.05 μM) and calcium ionophore (1 μM) and of a lipid substrate mixture composed of docosahexaenoic acid (DHA—1 μg/mL) and eicosapentaenoic acid (EPA—1 μg/mL).
The supernatants were then collected after 2 hours of stimulation and frozen at −80° C. before preparation for analysis by mass spectrometry.
Experimental triplicates (three wells) were prepared per experimental condition. Into each culture plate was placed a control corresponding to cells stimulated with the PMA/A23187 mixture and/or with addition of the equimolar mixture of fatty acids.
The thawed supernatants were concentrated by solid-phase extraction (SPE) and taken up in methanol before spectrometric analysis. The analytical method used consists in separating the various analytes by high-pressure liquid chromatography as a function of their retention time and in quantifying them by mass spectrometry. […]

| Molecule | Level of lipoxin A4 production (zinc gluconate 0.005 mg/ml) [%] | Level of lipoxin A4 production (taurine 3.1 mg/ml) |
| --- | --- | --- |
| Zinc gluconate | −5 |  |
| NCCS(=O)(=O)O [Taurine] |  | +38% |

— US20160074353A1, “USE OF PETROSELINIC ACID TO FIGHT AGAINST AESTHETIC DISORDERS OF THE BODY FIGURE” (L'OREAL, priority 2013, published 2016)
